# Laboratory results taken from patent US20080262021A1, “1H-Imidazoquinoline Derivatives as Prote In Kinase Inhibitors” (NOVARTIS AG, priority 2003, published 2008).
# Target: T1, S6K1 (Homo sapiens, UniProt P23443, T412E)
# T1 construct: His (N); made in house; host or cells: Sf9 insect cells (baculovirus, pFastBacHT A), co-infected with GST-PDK1 virus
# Assay: S6K1 kinase inhibition (S6K1ΔCT/T412E, TR-FRET)
# Type: biochemical
# Settings: read-out: IC50 Range Class, inhibition of S6K1
# Source text: The DNA fragment encoding S6K1ΔCT/T412E is subcloned to the baculovirus donor vector pFastBacHT A to generate a recombinant baculovirus that expresses S6K1ΔCT/T412E. Transfer vectors for S6K1ΔCT/T412E are transfected into the DH10Bac cell line (GIBCO). After selection of white colonies, they are used for viral DNA (bacmid) preparation. Sf9 cells (American Type Culture Collection) cells are then transfected with the viral DNA using Cellfectin reagent. Virus-containing media is collected from the transfected cell culture and is used for infection to increase its titer. For large-scale protein expression, Sf9 cells are co-infected with S6K1ΔCT/T412E and GST-PDK1 virus-containing media with MOI of 2.25 and 1, respectively. After 3 days, the cells expressing the recombinant enzyme are resuspended in the culture medium with a sterilized cell scraper and harvested by centrifugation. The cells are resuspended in 5 volumes of cell pellet of Extraction Buffer (50 mM MOPS pH 7.0, containing 300 mM NaCl, 0.05% Tween-20, 10 mM sodium pyrophosphate, 50 mM β-glycerophosphate, 0.2 mM cantharidic acid and 1× complete-EDTA protease inhibitor cocktail) and then disrupted with 15 strokes of a Dounce homogenizer followed by sonication on ice. The homogenate is centrifuged at 4° C. for 60 minutes at 48,000×g. The supernatant is clarified with a 5 μm filter and subjected to purification with TALON Superflow Resin (Clontech). First, 1 mL of TALON resin per 5 mL of the supernatant was equilibrated with the Extraction Buffer and resuspended in the supernatant followed by gentle agitation for 20 minutes at RT. After centrifugation at 700×g for 5 minutes, supernatant is removed. The resin is washed twice by adding 10 bed volumes of the Extraction Buffer, agitating for 10 minutes at RT, centrifugating at 700×g for 5 minutes, and discarding the supernatant. The resin is then resuspended with the same volume of the Extraction Buffer and transferred to an disposable chromatography column. The packed column is washed once with 10 bed volumes of the Extraction Buffer and additionally with the same volume of Wash Buffer (5 mM imidazole in the Extraction Buffer). Then, the His-tagged S6K1ΔCT/T412E is eluted with four bed volumes of Elution Buffer (150 mM imidazole in the Extraction Buffer).
# Measure of enzyme activity: The kinase assay with purified S6K1ΔCT/T412E is performed with TR-FRET (Time-Resolved Fluorescene Resonance Energy Transfer) technology. First, ATP-dependent phosphorylation of the biotinylated substrate peptide corresponding to residues 229-242 of S6 ribosomal protein (Biot-AKRRRLSSLRASTS) is carried out for 1 hour at 37° C. in […] under humidified air. The kinase reaction mixture of the final volume of 9 μL contains 2.57 ng of purified S6K1ΔCT/T412E protein, 50 mM MOPS (pH 7.0), 0.1 mM EGTA, 0.01 mM Na3VO4, 0.05% Tween-20, 0.01% BSA, 1 mM DTT, 10 mM MgCl2, 3 μM ATP, 0.5 μM biotinylated substrate peptide, 1% of DMSO or the text compounds of the formula (I) at the required concentration in 1% DMSO. For measurement of background, 20 mM of EDTA is added to the reaction mixture. […] Phosphorylated peptide indicative of kinase activity is quantitated by exciting the sample at 330 nm and comparing donor emission at 615 nm and acceptor emission at 665 nm by 2101 EnVision HTS multilabel plate reader (Perkin Elmer). […]
# T1 sequence (P23443 1-421 T412E): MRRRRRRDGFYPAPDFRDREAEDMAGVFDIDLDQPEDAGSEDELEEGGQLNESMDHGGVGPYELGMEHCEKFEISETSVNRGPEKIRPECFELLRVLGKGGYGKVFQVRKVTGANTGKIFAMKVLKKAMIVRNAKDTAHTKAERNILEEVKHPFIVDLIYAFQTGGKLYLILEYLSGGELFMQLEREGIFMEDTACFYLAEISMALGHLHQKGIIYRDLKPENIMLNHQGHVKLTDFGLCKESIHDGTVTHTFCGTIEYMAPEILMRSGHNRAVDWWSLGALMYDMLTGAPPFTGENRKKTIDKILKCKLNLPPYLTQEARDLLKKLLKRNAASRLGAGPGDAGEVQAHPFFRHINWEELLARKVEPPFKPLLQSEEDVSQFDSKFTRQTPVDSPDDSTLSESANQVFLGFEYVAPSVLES
row,IC50 [nM],Structure (SMILES)
1,≤ 500,"NCCc1ccc(-n2cnc3cnc4cc(F)c(-c5ccc6[nH]ccc6c5)cc4c32)c(Cl)c1 [Example 83, 2-{3-Chloro-4-[7-fluoro-8-(1H-indol-5-yl)-imidazo[4,5-c]quinolin-1-yl]-phenyl}-ethylamine]"
2,≤ 500,"NCCc1ccc(-n2cnc3cnc4ccc(-c5ccc(O)cc5)cc4c32)c(C(F)(F)F)c1 [Example 30, 4-{1-[4-(2-Amino-ethyl)-2-trifluoromethyl-phenyl]-1H-imidazo[4,5-c]quinolin-8-yl}-phenol]"
3,≤ 500,"Cc1cc(CCN)ccc1-n1cnc2cnc3ccc(-c4ccc5[nH]ccc5c4)cc3c21 [Example 22, 2-{4-[8-(1H-indol-5-yl)-Imidazo[4,5-c]quinolin-1-yl]-3-methyl-phenyl}-ethylamine]"

# Target: T2, RET (Homo sapiens, UniProt P07949)
# T2 construct: fused on or other part: N-terminal GST tag (from vector pFB-GSTX3)
# T2 sequence (P07949 1-1072 isoform P07949-2): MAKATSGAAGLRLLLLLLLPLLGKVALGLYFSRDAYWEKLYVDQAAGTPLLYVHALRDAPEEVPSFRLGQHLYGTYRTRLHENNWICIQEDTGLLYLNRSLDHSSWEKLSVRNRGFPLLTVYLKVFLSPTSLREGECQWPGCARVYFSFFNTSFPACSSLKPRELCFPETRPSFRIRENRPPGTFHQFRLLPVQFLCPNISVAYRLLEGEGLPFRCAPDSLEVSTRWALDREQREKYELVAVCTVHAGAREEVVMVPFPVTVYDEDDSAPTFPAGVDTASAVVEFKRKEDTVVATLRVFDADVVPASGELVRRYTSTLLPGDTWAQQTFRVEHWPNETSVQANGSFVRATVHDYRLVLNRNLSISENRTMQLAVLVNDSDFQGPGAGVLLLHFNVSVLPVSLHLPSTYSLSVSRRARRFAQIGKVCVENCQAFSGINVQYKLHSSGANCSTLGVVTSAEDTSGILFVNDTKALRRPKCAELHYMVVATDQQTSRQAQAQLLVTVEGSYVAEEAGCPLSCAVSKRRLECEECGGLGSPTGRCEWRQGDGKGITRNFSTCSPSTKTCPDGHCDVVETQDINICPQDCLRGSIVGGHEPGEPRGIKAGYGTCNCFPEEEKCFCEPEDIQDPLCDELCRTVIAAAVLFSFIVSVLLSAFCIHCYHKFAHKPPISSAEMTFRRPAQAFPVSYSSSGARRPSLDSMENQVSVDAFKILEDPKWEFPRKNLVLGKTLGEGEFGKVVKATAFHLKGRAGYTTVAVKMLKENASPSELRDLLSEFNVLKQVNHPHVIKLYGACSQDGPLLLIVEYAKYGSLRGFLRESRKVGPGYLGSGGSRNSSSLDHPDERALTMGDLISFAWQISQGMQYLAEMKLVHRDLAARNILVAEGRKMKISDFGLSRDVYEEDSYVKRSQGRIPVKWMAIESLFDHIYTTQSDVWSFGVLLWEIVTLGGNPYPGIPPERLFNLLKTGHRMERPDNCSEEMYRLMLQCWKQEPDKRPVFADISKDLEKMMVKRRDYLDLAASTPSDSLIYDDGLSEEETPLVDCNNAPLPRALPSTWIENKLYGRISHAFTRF
# Assay: RET kinase inhibition (33P filter assay, GST-wtRET or GST-RET-Men2B)
# Type: biochemical
# Settings: not given
# Protocol: RET kinase inhibition is determined as follows: The baculovirus donor vector pFB-GSTX3 is used to generate a recombinant baculovirus that expresses the amino acid region 658-1072 (Swiss Prot No. Q9BTB0) of the intra-cytoplasmic kinase domain of human RET-Men2A which corresponds to the wild-type kinase domain of RET (wtRET) and RET-Men2B, which differs from the wtRET by the activating mutation in the activation loop M918T. The coding sequences for the cytoplasmic domain of wtRET and RET-Men2B are amplified by PCR from the plasmids pBABEpuro RET-Men2A and pBABEpuro RET-Men2B, respectively which are received from Dr. James Fagin, College of Medicine, University of Cincinnati. The amplified DNA fragments and the pFB-GSTX3 vector are made compatible for ligation by digestion with SaII and KpnI. Ligation of these DNA fragments results in the baculovirus donor plasmid pFB-GX3-RET-Men2A and pFB-GX3-RET-Men2B, respectively.
# Production of virus: Transfer vectors containing the kinase domains are transfected into the DH10Bac cell line (GIBCO) and plated on selective agar plates. Colonies without insertion of the fusion sequence into the viral genome (carried by the bacteria) are blue. Single, white colonies are picked and viral DNA (bacmid) isolated from the bacteria by standard plasmid purification procedures. Sf9 cells or Sf21 (American Type Culture Collection) cells are then transfected in 25 cm^2 flasks with the viral DNA using Cellfectin reagent.
# Determination of small scale protein expression in Sf9 cells: Virus-containing media is collected from the transfected cell culture and used for Infection to increase its titer. Virus-containing media obtained after two rounds of infection is used for large-scale protein expression. For large-scale protein expression 100 cm^2 round tissue culture plates are seeded with 5×10^7 cells/plate and infected with 1 mL of virus-containing media (approximately 5 MOls). After 3 days, the cells are scraped off the plate and centrifuged at 500 rpm for 5 minutes. Cell pellets from 10-20, 100 cm^2 plates, are re-suspended in 50 mL of ice-cold lysis buffer (25 mM tris-HCl, pH 7.5, 2 mM EDTA, 1% NP-40, 1 mM DTT, 1 mM P MSF). The cells are stirred on ice for 15 minutes and then centrifuged at 5,000 rpms for 20 minutes.
# Purffication of GST-tagged proteins: The centrifuged cell lysate is loaded onto a 2 mL glutathione-sepharose column (Pharmacia) and washed 3× with 10 mL of 25 mM tris-HCl, pH 7.5, 2 mM EDTA, 1 mM DTT, 200 mM NaCl. The GST-tagged proteins are then eluted by 10 applications (1 mL each) of 25 mM tris-HCl, pH 7.5, 10 mM reduced-glutathione, 100 mM NaCl, 1 mM DTT, 10% glycerol and stored at −70° C.
# Measure of enzyme activity: Tyrosine protein kinase assays with either purified GST-wtRET or GST-RET-Men2B protein are carried out in a final volume of 30 μL containing 15 ng of either GST-wtRET or GST-RET-Men2B protein, 20 mM tris-HCl, pH 7.5, 1 mM MnCl2, 10 mM MgCl2, 1 mM DTT, 3 μg/mL poly(Glu, Tyr) 4:1, 1% dimethyl sulfoxide (DMSO), 2.0 μM ATP (γ-[^33P]-ATP 0.1 μCi). The activity is assayed in the presence or absence of inhibitors, by measuring the Incorporation of ^33P from [γ^33P] ATP into poly(Glu, Tyr) 4:1. The assay is carried out in 96-well plates at ambient temperature for 15 minutes under conditions described below and terminated by the addition of 20 μL of 125 mM EDTA. […] Membranes are counted after drying at ambient temperature, mounting in Packard TopCount 96-well frame, and addition of 10 μL/well of Microscint™ (Packard). […]
row,"IC50 Range Class, inhibition of RET",Structure (SMILES)
1,B/A,"Fc1ccccc1-n1cnc2cnc3ccc(-c4ccncc4)cc3c21 [Example 125, 1-(2-Fluoro-phenyl)-8-pyridin-4-yl-1H-imidazo[4,5-c]quinoline]"

# Same assay, conditions: read-out: IC50 Range Class, inhibition of RET
row,IC50 [nM],Structure (SMILES)
1,≤ 500,"CN(C)Cc1cccc(-c2ccc3ncc4ncn(-c5ccccc5F)c4c3c2)c1 [Example 129, {3-[1-(2-Fluoro-phenyl)-1H-imidazo[4,5-c]quinolin-8-yl]-benzyl}-dimethyl-amine]"
2,500 to 1000,"COc1ccc(OC)c(-c2ccc3ncc4ncn(-c5ccccc5F)c4c3c2)c1 [Example 119, 8-(2,5-Dimethoxy-phenyl)-1-(2-fluoro-phenyl)-1H-imidazo[4,5-c]quinoline]"
3,≤ 500,"Oc1ccc(-c2ccc3ncc4ncn(-c5ccccc5F)c4c3c2)cc1 [Example 127, 4-[1-(2-Fluoro-phenyl)-1H-imidazo[4,5-c]quinolin-8-yl]-phenol]"
4,500 to 1000,"c1ccc(-n2cnc3cnc4ccc(-c5cccc(N6CCNCC6)c5)cc4c32)cc1 [Example 134, 1-Phenyl-8-(3-piperazin-1-yl-phenyl)-1H-imidazo[4,5-c]quinoline]"

# Target: PKB (Homo sapiens, UniProt P31749)
# Sequence (P31749 whole entry): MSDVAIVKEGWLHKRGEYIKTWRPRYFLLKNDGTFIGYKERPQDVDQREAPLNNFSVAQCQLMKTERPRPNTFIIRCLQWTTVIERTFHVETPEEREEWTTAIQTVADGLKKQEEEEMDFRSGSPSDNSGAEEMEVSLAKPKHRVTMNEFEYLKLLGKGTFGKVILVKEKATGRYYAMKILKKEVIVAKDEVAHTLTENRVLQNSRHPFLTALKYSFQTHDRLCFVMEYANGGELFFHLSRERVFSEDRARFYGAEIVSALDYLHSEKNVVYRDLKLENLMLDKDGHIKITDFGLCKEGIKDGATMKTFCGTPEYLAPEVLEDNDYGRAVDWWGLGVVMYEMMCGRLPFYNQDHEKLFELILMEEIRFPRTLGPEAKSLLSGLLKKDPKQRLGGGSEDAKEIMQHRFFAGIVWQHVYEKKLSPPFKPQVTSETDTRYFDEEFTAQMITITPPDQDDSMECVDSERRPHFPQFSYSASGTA
# Assay: PKB kinase inhibition (PDK1-activated GST-PKB, 33P peptide assay)
# Type: biochemical
# Settings: read-out: IC50 Range Class, inhibition of PKB
# Protocol: GST-PKB [100 ng, specific activity (SA): 0.2 nmole/mg/min.] is incubated for 30 minutes at room temperature (RT) with purified recombinant GST-PDK1 (1 ng, SA: 2 nmole/min./mg). The activation is performed as follows: 0.1 μg of GST-PDK1 (0.05 μL) and 10 μg of GST-PKB (0.45 μL) are mixed in a total volume of 0.75 μL containing 15 μM ATP, 3 mM MgCl2, 20 mM hepes (pH 7.6) for 30 minutes at RT. The reaction is subsequently stopped by adding 0.25 μL containing 30% gycerol (w/w) and 0.06 μL of 500 mM EDTA. 100-500 ng (0.01-0.05 μL) activated GST-PKB is incubated in a final volume of 30 μL with 10 μM of the RRPRTRSFS peptide, 10 mM Mg-acetate, 50 mM MOPS (PH 7.5), 1 mM DTT and 300 μg/mL BSA, 20 μM ATP (0.1 μCi γ-^33P-ATP). The reaction is carried out for 30 minutes at RT in the presence of either 1% DMSO or the text compound of the formula (I) at the required concentration in 1% DMSO. The reaction is terminated by the addition of 20 μL 125 mM EDTA. Thirty (30) μL of each sample is spotted onto P81 Whatman and the paper squares processed. See Ferrari and Thomas, Methods Enzymol, Vol. 200, pp. 159-169 (1991). IC50 values are calculated by linear regression analysis of the percentage inhibition of each compound in duplicate.
row,IC50 [nM],Structure (SMILES)
1,≤ 500,"NCCc1ccc(-n2cnc3cnc4cc(Cl)c(-c5ccsc5)cc4c32)cc1 [Example 90, 2-[4-(7-Chloro-8-thiophen-3-yl-imidazo[4,5-c]quinolin-1-yl)-phenyl]-ethylamine]"
2,≤ 500,"NCCc1ccc(-n2cnc3cnc4cc(F)c(-c5cccs5)cc4c32)cc1 [Example 61, 2-[4-(7-Fluoro-8-thiophen-2-yl-imidazo[4,5-c]quinolin-1-yl)-phenyl]-ethylamine]"
3,≤ 500,"NCCCc1ccc(-n2cnc3cnc4cc(F)c(-c5ccsc5)cc4c32)cc1 [Example 74, 3-[4-(7-Fluoro-8-thiophen-3-yl-imidazo[4,5-c]quinolin-1-yl)-phenyl]-propylamine]"
4,≤ 500,"NCCc1ccc(-n2cnc3cnc4cc(F)c(-c5ccc6[nH]ccc6c5)cc4c32)cc1 [Example 64, 2-{4-[7-Fluoro-8-(1H-indol-5-yl)-imidazo[4,5-c]quinolin-1-yl]-phenyl}-ethylamine]"
